Measurements taken from ChEMBL document CHEMBL1201861, “Genomics of Drug Sensitity in Cancer screening data, Wellcome Trust Sanger Institute”.
“And” between values parts separate entries of the source, which are not always exact repeats. Equal values may be shown once.

Assays:
Test in all cases: cells
A-427 = type: functional, cell-based, Homo sapiens;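 further: growth inhibition of human A-427 cells, read out by a cell viability assay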
Description: SANGER: Inhibition of human A427 cell growth in a cell viability assay.

HCC 2998 = type: functional, cell-based, Homo sapiens;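 further: growth inhibition of human HCC2998 cells, measured with a cell viability read-out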
Description: SANGER: Inhibition of human HCC2998 cell growth in a cell viability assay.

BPH-1 = type: functional, cell-based, Homo sapiens;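 further: cell viability assay measuring growth inhibition of human BPH-1 cells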
Description: SANGER: Inhibition of human BPH-1 cell growth in a cell viability assay.

CW-2 = type: functional, cell-based, Homo sapiens;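 further: growth inhibition of CW-2 cells, read out by a cell viability assay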
Description: SANGER: Inhibition of human CW-2 cell growth in a cell viability assay.

C8166 = type: functional, cell-based; details: Homo sapiens;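 further: growth inhibition of human C8166 cells measured by a cell viability assay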
Description: SANGER: Inhibition of human C8166 cell growth in a cell viability assay.

BB49-HNC = type: functional, cell-based, Homo sapiens;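 further: cell viability assay read-out, reported as inhibition of BB49-HNC cell growth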
Description: SANGER: Inhibition of human BB49-HNC cell growth in a cell viability assay.

T47D = type: functional, cell-based, Homo sapiens;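 further: growth inhibition of human T47D cells, measured with a cell viability assay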
Description: SANGER: Inhibition of human T47D cell growth in a cell viability assay.

KALS-1 = type: functional, cell-based, Homo sapiens;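 further: growth inhibition of KALS-1 cells, determined with a cell viability assay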
Description: SANGER: Inhibition of human KALS-1 cell growth in a cell viability assay.

NCI-H2126 = type: functional, cell-based, Homo sapiens;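 further: growth inhibition of the cancer cell line, determined with a cell viability readout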
Description: SANGER: Inhibition of human NCI-H2126 cell growth in a cell viability assay.

KYSE-510 = type: functional, cell-based, Homo sapiens;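 further: cell viability readout used to measure how strongly growth of the cell line is suppressed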
Description: SANGER: Inhibition of human KYSE-510 cell growth in a cell viability assay.

Calu-6 = type: functional, cell-based, Homo sapiens;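 further: growth of human Calu-6 cells, read out by a cell viability assay, IC50 marking inhibition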
Description: SANGER: Inhibition of human Calu-6 cell growth in a cell viability assay.

AU565 = type: functional, cell-based, Homo sapiens;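 further: cell viability assay measuring growth inhibition of human AU565 cells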
Description: SANGER: Inhibition of human AU565 cell growth in a cell viability assay.

NCI-H661 = type: functional, cell-based, Homo sapiens;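 further: cell viability assay read-out, IC50 being the concentration that inhibits growth of the cells by half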
Description: SANGER: Inhibition of human NCI-H661 cell growth in a cell viability assay.

DOHH-2 = type: functional, cell-based; details: Homo sapiens;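 further: growth inhibition of human DOHH-2 cells, read out with a cell viability assay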
Description: SANGER: Inhibition of human DOHH-2 cell growth in a cell viability assay.

RCM-1 = type: functional, cell-based, Homo sapiens;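 further: growth inhibition of the RCM-1 line, determined with a cell viability readout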
Description: SANGER: Inhibition of human RCM-1 cell growth in a cell viability assay.

HO-1-N-1 = type: functional, cell-based, Homo sapiens;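 further: growth inhibition of human HO-1-N-1 cells, read out with a cell viability assay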
Description: SANGER: Inhibition of human HO-1-N-1 cell growth in a cell viability assay.

COLO-792 = type: functional, cell-based, Homo sapiens
Description: SANGER: Inhibition of human COLO-792 cell growth in a cell viability assay.

BFTC-909 = type: functional, cell-based, Homo sapiens
Description: SANGER: Inhibition of human BFTC-909 cell growth in a cell viability assay.

Detroit 562 = type: functional, cell-based, Homo sapiens;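 further: growth inhibition of human Detroit 562 cells, read out by a cell viability assay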
Description: SANGER: Inhibition of human Detroit562 cell growth in a cell viability assay.

NCI-H1623 = type: functional, cell-based, Homo sapiens;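 further: cell viability assay used as the read-out for growth inhibition of NCI-H1623 cells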
Description: SANGER: Inhibition of human NCI-H1623 cell growth in a cell viability assay.

NCI-H1395 = type: functional, cell-based, Homo sapiens;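 further: cell viability assay read-out quantifying reduced proliferation of human NCI-H1395 cells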
Description: SANGER: Inhibition of human NCI-H1395 cell growth in a cell viability assay.

SK-NEP-1 = type: functional, cell-based; details: Homo sapiens;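 further: growth inhibition of human SK-NEP-1 cells, read out by a cell viability assay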
Description: SANGER: Inhibition of human SK-NEP-1 cell growth in a cell viability assay.

HCC2218 = type: functional, cell-based; details: Homo sapiens;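 further: cell viability assay read-out, with IC50 given as the concentration that inhibits growth of the cell line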
Description: SANGER: Inhibition of human HCC2218 cell growth in a cell viability assay.

IGROV-1 = type: functional, cell-based, Homo sapiens;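 further: reduction of IGROV-1 cell growth, read out with a viability assay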
Description: SANGER: Inhibition of human IGROV-1 cell growth in a cell viability assay.

Ca-Ski = type: functional, cell-based; details: Homo sapiens;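 further: cell viability assay measuring inhibition of Ca-Ski cell growth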
Description: SANGER: Inhibition of human Ca-Ski cell growth in a cell viability assay.

KS-1 = type: functional, cell-based, Homo sapiens;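 further: growth inhibition of KS-1 cells, read out with a cell viability assay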
Description: SANGER: Inhibition of human KS-1 cell growth in a cell viability assay.

LB2518-MEL = type: functional, cell-based, Homo sapiens;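 further: growth inhibition of human LB2518-MEL cells, measured with a cell viability assay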
Description: SANGER: Inhibition of human LB2518-MEL cell growth in a cell viability assay.

SW1088 = type: functional, cell-based, Homo sapiens;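 further: growth inhibition of human SW1088 cells, read out by a cell viability assay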
Description: SANGER: Inhibition of human SW1088 cell growth in a cell viability assay.

T-24 = type: functional, cell-based, Homo sapiens;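 further: growth inhibition of T-24 cells, read out with a cell viability assay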
Description: SANGER: Inhibition of human T-24 cell growth in a cell viability assay.

MLMA = type: functional, cell-based, Homo sapiens;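 further: growth inhibition of MLMA cells (human), determined through a cell viability readout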
Description: SANGER: Inhibition of human MLMA cell growth in a cell viability assay.

Capan-2 = type: functional, cell-based, Homo sapiens;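 further: Capan-2 cell growth inhibition, read out with a viability assay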
Description: SANGER: Inhibition of human Capan-2 cell growth in a cell viability assay.

SNU-5 = type: functional, cell-based; details: Homo sapiens;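 further: cell viability readout used to measure growth inhibition in human NCI-SNU-5 cells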
Description: SANGER: Inhibition of human NCI-SNU-5 cell growth in a cell viability assay.

HOP-62 = type: functional, cell-based, Homo sapiens;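 further: cell growth inhibition determined with a viability assay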
Description: SANGER: Inhibition of human HOP-62 cell growth in a cell viability assay.

NCI-H1651 = type: functional, cell-based, Homo sapiens;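 further: Read-out is a cell viability assay, with IC50 expressing inhibition of NCI-H1651 cell growth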
Description: SANGER: Inhibition of human NCI-H1651 cell growth in a cell viability assay.

LXF-289 cell line = type: functional, cell-based, Homo sapiens
Description: SANGER: Inhibition of human LXF-289 cell growth in a cell viability assay.

HT-1080 = type: functional, cell-based, Homo sapiens
Description: SANGER: Inhibition of human HT-1080 cell growth in a cell viability assay.

BEN = type: functional, cell-based, Homo sapiens;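 further: growth inhibition of the BEN cell line, read out with a cell viability assay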
Description: SANGER: Inhibition of human BEN cell growth in a cell viability assay.

EW-24 = type: functional, cell-based; details: Homo sapiens;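 further: human EW-24 cancer cell line, growth inhibition read out via a cell viability assay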
Description: SANGER: Inhibition of human EW-24 cell growth in a cell viability assay.

KINGS-1 = type: functional, cell-based, Homo sapiens;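 further: cell viability assay measuring suppression of KINGS-1 cell growth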
Description: SANGER: Inhibition of human KINGS-1 cell growth in a cell viability assay.

CP50-MEL-B = type: functional, cell-based, Homo sapiens;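 further: growth inhibition of the human cell line, measured with a cell viability read-out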
Description: SANGER: Inhibition of human CP50-MEL-B cell growth in a cell viability assay.

JAR = type: functional, cell-based, Homo sapiens;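 further: growth inhibition of human JAR cells determined with a cell viability assay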
Description: SANGER: Inhibition of human JAR cell growth in a cell viability assay.

HD-MY-Z = type: functional, cell-based, Homo sapiens;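 further: growth inhibition of HD-MY-Z cells, read out with a cell viability assay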
Description: SANGER: Inhibition of human HD-MY-Z cell growth in a cell viability assay.

HCC1569 = type: functional, cell-based, Homo sapiens;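 further: growth inhibition of human HCC1569 cells, read out with a cell viability assay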
Description: SANGER: Inhibition of human HCC1569 cell growth in a cell viability assay.

IST-SL1 = type: functional, cell-based, Homo sapiens;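 further: growth inhibition of human IST-SL1 cells, read out with a cell viability assay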
Description: SANGER: Inhibition of human IST-SL1 cell growth in a cell viability assay.

YKG-1 = type: functional, cell-based, Homo sapiens;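 further: cell growth inhibition, read out with a viability assay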
Description: SANGER: Inhibition of human YKG-1 cell growth in a cell viability assay.

PC-3 = type: functional, cell-based, Homo sapiens;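 further: cell viability assay measuring growth inhibition of PC-3 cells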
Description: SANGER: Inhibition of human PC-3 cell growth in a cell viability assay.

SK-MEL3 = type: functional, cell-based, Homo sapiens, SK-MEL-3;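 further: growth inhibition of human SK-MEL-3 cells, read out with a cell viability assay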
Description: SANGER: Inhibition of human SK-MEL-3 cell growth in a cell viability assay.

MZ7-mel = type: functional, cell-based, Homo sapiens;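 further: growth inhibition of human MZ7-mel cells, measured by a cell viability assay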
Description: SANGER: Inhibition of human MZ7-mel cell growth in a cell viability assay.

LS-411N = type: functional, cell-based, Homo sapiens
OE19 = type: functional, cell-based, Homo sapiens;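 further: growth inhibition of OE19 cells, measured through a cell viability read-out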
Description: SANGER: Inhibition of human OE19 cell growth in a cell viability assay.

Mo = type: functional, cell-based; details: Homo sapiens
Description: SANGER: Inhibition of human Mo-T cell growth in a cell viability assay.

Structure (SMILES): Cn1cncc1[C@@](N)(c1ccc(Cl)cc1)c1ccc2c(c1)c(-c1cccc(Cl)c1)cc(=O)n2C [TIPIFARNIB]
- IC50 (A-427; Homo sapiens, A-427): 0.579 µM
- IC50 (HCC 2998; Homo sapiens, HCC 2998): 0.384 µM
- IC50 (BPH-1; Homo sapiens, BPH-1): 2.24 µM
- IC50 (CW-2; Homo sapiens, CW-2): > 16 µM
- IC50 (C8166): > 16 µM
- IC50 (BB49-HNC; Homo sapiens, BB49-HNC): 5.86 µM
- IC50 (T47D; Homo sapiens, T47D): > 16 µM
- IC50 (KALS-1; Homo sapiens, KALS-1): > 16 µM
- IC50 (NCI-H2126; Homo sapiens, NCI-H2126): > 16 µM
- IC50 (KYSE-510; Homo sapiens, KYSE-510): 0.977 µM
- IC50 (Calu-6; Homo sapiens, Calu-6): 1.28 µM
- IC50 (AU565; Homo sapiens, AU565): 1.79 µM
- IC50 (NCI-H661; Homo sapiens, NCI-H661): 7.5 µM
- IC50 (DOHH-2): 7.91 µM
- IC50 (RCM-1; Homo sapiens, RCM-1): > 16 µM
- IC50 (HO-1-N-1; Homo sapiens, HO-1-N-1): 10.5 µM
- IC50 (COLO-792; Homo sapiens, COLO-792): 12.2 µM
- IC50 (BFTC-909; Homo sapiens, BFTC-909): 8.37 µM
- IC50 (Detroit 562; Homo sapiens, Detroit 562): 4.07 µM
- IC50 (NCI-H1623; Homo sapiens, NCI-H1623): > 16 µM
- IC50 (NCI-H1395; Homo sapiens, NCI-H1395): > 16 µM
- IC50 (SK-NEP-1): 9.94 µM
- IC50 (HCC2218): > 16 µM
- IC50 (IGROV-1; Homo sapiens, IGROV-1): 0.208 µM
- IC50 (Ca-Ski): 9.17 µM
- IC50 (KS-1; Homo sapiens, KS-1): 0.77 µM
- IC50 (LB2518-MEL; Homo sapiens, LB2518-MEL): 2.1 µM
- IC50 (SW1088; Homo sapiens, SW1088): 8.57 µM
- IC50 (T-24; Homo sapiens, T-24): 13.9 µM
- IC50 (MLMA; Homo sapiens, MLMA): > 16 µM
- IC50 (Capan-2; Homo sapiens, Capan-2): 10.6 µM
- IC50 (SNU-5): > 16 µM
- IC50 (HOP-62; Homo sapiens, HOP-62): 3.21 µM
- IC50 (NCI-H1651; Homo sapiens, NCI-H1651): > 16 µM
- IC50 (LXF-289 cell line; Homo sapiens, LXF-289): 4.13 µM
- IC50 (HT-1080; Homo sapiens, HT-1080): 10.3 µM
- IC50 (BEN; Homo sapiens, BEN): 5.4 µM
- IC50 (EW-24): > 16 µM
- IC50 (KINGS-1; Homo sapiens, KINGS-1): > 16 µM
- IC50 (CP50-MEL-B; Homo sapiens, CP50-MEL-B): > 16 µM
- IC50 (JAR; Homo sapiens, JAR): > 16 µM
- IC50 (HD-MY-Z; Homo sapiens, HD-MY-Z): > 16 µM
- IC50 (HCC1569; Homo sapiens, HCC1569): 2.58 µM
- IC50 (IST-SL1; Homo sapiens, IST-SL1): > 16 µM
- IC50 (YKG-1; Homo sapiens, YKG-1): 0.526 µM
- IC50 (PC-3; Homo sapiens, PC-3): 11.3 µM
- IC50 (SK-MEL3; Homo sapiens, SK-MEL3): 4.98 µM
- IC50 (MZ7-mel; Homo sapiens, MZ7-mel): 0.722 µM
- IC50 (LS-411N; Homo sapiens, LS-411N): 1.1 µM
- IC50 (OE19; Homo sapiens, OE19): 5.75 µM
- IC50 (Mo): > 16 µM

Structure (SMILES): Cc1cc([C@@H](C)Nc2ccccc2C(=O)O)c2nc(N3CCOCC3)cc(=O)n2c1 [AZD-6482]
- IC50 (A-427; a-427): 0.995 µM and > 5.12 µM
- IC50 (HCC 2998; hcc 2998): > 5.12 µM
- IC50 (BPH-1; Homo sapiens, BPH-1): 4.9 µM
- IC50 (BPH-1; bph-1): 4.3 µM
- IC50 (CW-2; cw-2): > 5.12 µM
- IC50 (C8166): > 5.12 µM
- IC50 (BB49-HNC; bb49-hnc): > 5.12 µM and 0.73 µM
- IC50 (T47D; Homo sapiens, T47D): 0.533 µM
- IC50 (T47D; t47d): 0.938 µM
- IC50 (KALS-1; Homo sapiens, KALS-1): 4.35 µM
- IC50 (KALS-1; kals-1): > 5.12 µM
- IC50 (NCI-H2126; nci-h2126): > 5.12 µM
- IC50 (KYSE-510; Homo sapiens, KYSE-510): > 5.12 µM
- IC50 (KYSE-510; kyse-510): > 5.12 µM
- IC50 (Calu-6; calu-6): > 5.12 µM
- IC50 (AU565; Homo sapiens, AU565): > 5.12 µM
- IC50 (AU565; au565): > 5.12 µM
- IC50 (NCI-H661; nci-h661): > 5.12 µM
- IC50 (DOHH-2): 4.65 µM
- IC50 (RCM-1; rcm-1): > 5.12 µM
- IC50 (HO-1-N-1; ho-1-n-1): > 5.12 µM
- IC50 (COLO-792; colo-792): > 5.12 µM
- IC50 (BFTC-909; bftc-909): > 5.12 µM
- IC50 (Detroit 562; detroit 562): 1.05 µM and 2.13 µM
- IC50 (NCI-H1623; nci-h1623): > 5.12 µM and 3.13 µM
- IC50 (NCI-H1395; nci-h1395): > 5.12 µM
- IC50 (SK-NEP-1): > 5.12 µM
- IC50 (HCC2218): > 5.12 µM
- IC50 (IGROV-1; Homo sapiens, IGROV-1): 1.97 µM
- IC50 (IGROV-1; igrov-1): 2.55 µM
- IC50 (Ca-Ski): 1.93 µM
- IC50 (KS-1; Homo sapiens, KS-1): > 5.12 µM
- IC50 (KS-1; ks-1): > 5.12 µM
- IC50 (LB2518-MEL; Homo sapiens, LB2518-MEL): > 5.12 µM
- IC50 (LB2518-MEL; lb2518-mel): > 5.12 µM
- IC50 (SW1088; Homo sapiens, SW1088): 2.48 µM
- IC50 (SW1088; sw1088): 2.01 µM
- IC50 (T-24; t-24): > 5.12 µM
- IC50 (MLMA; Homo sapiens, MLMA): 3.72 µM
- IC50 (MLMA; mlma): 4.88 µM
- IC50 (Capan-2; capan-2): > 5.12 µM
- IC50 (SNU-5): > 5.12 µM
- IC50 (HOP-62; hop-62): > 5.12 µM
- IC50 (NCI-H1651; Homo sapiens, NCI-H1651): > 5.12 µM
- IC50 (NCI-H1651; nci-h1651): > 5.12 µM
- IC50 (LXF-289 cell line; lxf-289): 1.55 µM and 4.06 µM
- IC50 (HT-1080; ht-1080): > 5.12 µM
- IC50 (BEN; ben): > 5.12 µM
- IC50 (EW-24): > 5.12 µM
- IC50 (KINGS-1; Homo sapiens, KINGS-1): > 5.12 µM
- IC50 (KINGS-1; kings-1): > 5.12 µM
- IC50 (CP50-MEL-B; cp50-mel-b): > 5.12 µM
- IC50 (JAR; jar): > 5.12 µM
- IC50 (HD-MY-Z; hd-my-z): > 5.12 µM
- IC50 (HCC1569; hcc1569): 3.29 µM and > 5.12 µM
- IC50 (IST-SL1; ist-sl1): > 5.12 µM
- IC50 (YKG-1; Homo sapiens, YKG-1): > 5.12 µM
- IC50 (YKG-1; ykg-1): > 5.12 µM
- IC50 (PC-3; pc-3): > 5.12 µM
- IC50 (SK-MEL3; Homo sapiens, SK-MEL3): > 5.12 µM
- IC50 (SK-MEL3; sk-mel-3): > 5.12 µM
- IC50 (MZ7-mel; Homo sapiens, MZ7-mel): > 5.12 µM
- IC50 (MZ7-mel; mz7-mel): > 5.12 µM
- IC50 (LS-411N; Homo sapiens, LS-411N): > 5.12 µM
- IC50 (LS-411N; ls-411n): > 5.12 µM
- IC50 (OE19; oe19): > 5.12 µM
- IC50 (Mo): > 5.12 µM
